Assay [1] can be described thus: Lipid lowering in the normolipaemic golden hamster. Format: in vivo, Goldhamster. The note with it: compared with control group fed without test substance. An excerpt:
III. Lipidsenkung am normolipämischen Goldhamster.
Diese Bestimmung wurde nach der in J. Lipid. Res. 38, 564-575, (1997) beschriebenen Methode durchgeführt. Am Ende des Versuchs wurde Gesamtcholesterol, β-Lipoprotein-Cholesterol sowie HDL-Cholesterol bestimmt und mit den Werten einer ohne Testsubstanz gefütterten Kontrollgruppe verglichen.

Assay [2] deals with Cand. albicans ATCC 10231. The assay is described as follows: Fungistatic effect, serial dilution test (microtitre system). The class given is cell-based. Conditions: Candida albicans. How it is done:
(§1) IV. Bestimmung der fungistatischen Wirkung
(§2) Die fungistatische Wirkung wurde über den Reihenverdünnungstest (Mikrotitersystem) bestimmt. Als Nährmedium diente Sabouraud-Bouillon. Das Inoculum betrug ca. 10^4 bis 10^5 KBE/ml (KBE = koloniebildende Einheiten); die Bebrütungszeit betrug 2 bis 4 Tage bei 26°C.
(§3) Es wurde die niedrigste Konzentration, die sichtbares Wachstum nicht mehr zuließ (minimale Hemmkonzentration MHK), bestimmt.
(§4) Geprüft wurden die vorstehend erwähnten Verbindungen A, B, D, E, F, H, I, K, L und M. Die Ergebnisse sind in der folgenden Tabelle 5 zusammengefaßt. Die MHK ist in µg/ml angegeben.

Assay [3] has as its system Trich. mentagrophytes ATCC 9129. Described as above. Format: cell-based. The note with it: Trichophyton mentagrophytes. How it is done:
as §1, §2, §3, §4

In assay [4] the test system is Sacch. carlsbergensis ATCC 9080. Described as above. The class given is cell-based. Conditions: Saccharomyces pastorianus. The method, then:
as §1, §2, §3, §4

Another assay concerns Asp. niger ATCC 16404. The description is as above. Format: cell-based. The note with it: Aspergillus niger. How it is done: as §1, §2, §3, §4
The test system of another assay is Pen.notatum CBS 19746. The assay is described as above. The note with it: Penicillium chrysogenum. Format: cell-based. How it is done: as §1, §2, §3, §4
In another assay the test system is Rhod. rubra 49. The assay is described as above. Format: cell-based. The note with it: read-out: MHK. The method, then: as §1, §2, §3, §4
The subject of assay [5] is 2,3-Epoxisqualen-Lanosterol-Cyclase. Description: In-vivo effect in the rat after oral administration: 2,3-epoxysqualene level in the liver. Further details: species or system Ratte. How it is done: II. Messung der in-vivo Wirkung an der Ratte nach oraler Gabe
Die Inhibierung des Enzyms 2,3-Epoxisqualen-Lanosterol-Cyclase bewirkt eine Erhöhung der 2,3-Epoxisqualenspiegel in Leber und Plasma. Die Menge an gebildetem 2,3-Epoxisqualen dient daher als direktes Maß für die Wirkstärke am Ganztier.Die Bestimmung wurde nach der in J. Lipid. Res. 38, 564-575, [1997] beschriebenen Methode nach t = 3 bzw. 8 Stunden nach Substanzgabe mit Konzentrationen von c = 0.01, 0.03, 0.1, 0.3 und 1.0 mg/kg durchgeführt. In der folgenden Tabelle 3 sind beispielhaft die Ergebnisse für die vorstehend erwähnten Substanzen A, B, C, D, E, G, H, I und K angegeben.

Assay [6] deals with T1, ^14C-Acetat-Einbau in die mit Digitonin fällbaren Steroide (Homo sapiens, UniProt P48449).
T1 sequence (P48449 2-732): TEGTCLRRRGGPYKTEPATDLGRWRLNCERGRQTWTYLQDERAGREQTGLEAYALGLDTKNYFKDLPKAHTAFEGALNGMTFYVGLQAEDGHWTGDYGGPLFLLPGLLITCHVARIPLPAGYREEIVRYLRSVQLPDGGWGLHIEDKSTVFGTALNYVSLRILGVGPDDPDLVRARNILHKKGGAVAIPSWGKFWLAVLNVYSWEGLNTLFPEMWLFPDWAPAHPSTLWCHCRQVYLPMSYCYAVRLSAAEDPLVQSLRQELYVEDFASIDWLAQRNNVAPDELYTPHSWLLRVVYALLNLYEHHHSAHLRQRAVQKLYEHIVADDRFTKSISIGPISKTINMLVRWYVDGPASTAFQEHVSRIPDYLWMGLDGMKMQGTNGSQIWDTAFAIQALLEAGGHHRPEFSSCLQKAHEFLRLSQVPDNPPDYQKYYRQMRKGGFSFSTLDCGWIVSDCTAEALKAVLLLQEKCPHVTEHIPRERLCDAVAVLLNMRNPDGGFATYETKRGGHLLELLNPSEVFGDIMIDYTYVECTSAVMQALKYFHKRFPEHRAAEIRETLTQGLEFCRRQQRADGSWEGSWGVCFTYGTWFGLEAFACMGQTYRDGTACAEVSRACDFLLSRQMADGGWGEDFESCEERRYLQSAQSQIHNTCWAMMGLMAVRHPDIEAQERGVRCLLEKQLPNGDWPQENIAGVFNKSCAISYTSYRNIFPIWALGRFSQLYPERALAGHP
The assay is described as follows: Inhibition of 14C-acetate incorporation into digitonin-precipitable steroids. The note with it: read-out: Prozentwerte, um die die Verbindungen den ^14C-Acetat-Einbau hemmen. The class given is cell-based. An excerpt:
I. Messung der Hemmung des ^14C-Acetat-Einbaus in die mit Digitonin fällbaren Steroide:
Die Untersuchung der Hemmwirkung wurde nach der in J. Lipid. Res. 37, 148-157 [1996] beschriebenen Methode bei Testkonzentrationen von 10^-8 und 10^-9 Mol/l durchgeführt.
Die Prozentwerte, um die obigen Verbindungen den ^14C-Acetat-Einbau hemmen, sind in Tabelle 1 angegeben.

The structures appear in SMILES notation. Structures can show the parent of a compound that is named as a salt. Where two headings read alike, the source gives them in different places.

In the case of `Cc1ccc(OC(=O)N2CCC(Cc3ccc(CN(C)C)cc3)CC2)cc1.Cl` [K, 4-[4-(Dimethylaminomethyl)benzyl] -N-(4-methylphenoxy)-carbonylpiperidin-hydrochlorid], the Gesamtcholesterol in [1] (Dosis 54.2 mg/kg/Tag) was -6.8%. In assay [1] (Dosis 54.2 mg/kg/Tag), the HDL-Cholesterol came out at 2.3%. In [1] (Dosis 54.2 mg/kg/Tag), the β-Lipoprotein-Cholesterol is -21.2%. Moreover, the MIC in [2] (ATCC10231, read-out: MHK) worked out at 64 µg/mL; in assay [3] (ATCC9129, read-out: MHK) it was 8 µg/mL; in assay [4] (ATCC9080, read-out: MHK), 512 µg/mL; in the assay on Asp. niger ATCC 16404 (ATCC16404, read-out: MHK) it was 64 µg/mL; with Pen.notatum CBS 19746 (CBS19746, read-out: MHK), 256 µg/mL; with Rhod. rubra 49 it was 64 µg/mL. The “2,3-Epoxysqualen-Konzentration in der Leber (Ratte)” value (“2,3-Epoxysqualen-Konzentration” below) in assay [5] (c = 0.1 mg/kg, t = 3 h) was 0.4 µg/g; in assay [5] (c = 0.1 mg/kg, t = 8 h), 0.4 µg/g; in assay [5] (c = 1.0 mg/kg, t = 3 h) it was 24.0 µg/g; in [5] (c = 1.0 mg/kg, t = 8 h), 5.5 µg/g. Also, the inhibition at 0.001 µM in assay [6] was 49%. The inhibition at 0.01 µM in assay [6] amounted to 82%.

Take `CN(C)Cc1ccc(CC2CCN(C(=O)Oc3ccc(F)cc3)CC2)cc1` [M, 4-[4-(Dimethylaminomethyl)benzyl]-N-(4-fluorphenoxy)-carbonylpiperidin-hydrochlorid]: the Gesamtcholesterol in assay [1] (Dosis 57.5 mg/kg/Tag) is listed as -26.8%. For the same compound, the HDL-Cholesterol in assay [1] (Dosis 57.5 mg/kg/Tag) was -20.4%. In addition, the β-Lipoprotein-Cholesterol in assay [1] (Dosis 57.5 mg/kg/Tag) is -31.6%. Also, the MIC was 128 µg/mL in [2] (ATCC10231, read-out: MHK); 2 µg/mL in assay [3] (ATCC9129, read-out: MHK); 512 µg/mL in [4] (ATCC9080, read-out: MHK); 64 µg/mL in the assay with Asp. niger ATCC 16404 (ATCC16404, read-out: MHK); 512 µg/mL with Pen.notatum CBS 19746 (CBS19746, read-out: MHK); 32 µg/mL in the assay on Rhod. rubra 49. For the same compound, the inhibition at 0.001 µM in assay [6] was determined as 59%. For the same compound, in assay [6], the inhibition at 0.01 µM came to 84%.

In the case of `CN(C)Cc1ccc(CC2CCN(C(=O)Oc3ccc(Cl)cc3)CC2)cc1` [Verbindung H, N-(4-Chlorphenoxy)carbonyl-4-[4-(dimethylaminomethyl)-benzyl]piperidin-hydrochlorid], the Gesamtcholesterol in assay [1] (Dosis 6.5 mg/kg/Tag) is on record as -8.3%; in [1] (Dosis 19.9 mg/kg/Tag), -11.0%; in [1] (Dosis 62.3 mg/kg/Tag) it was -32.1%. Besides, the HDL-Cholesterol is listed as -3.4% in assay [1] (Dosis 6.5 mg/kg/Tag), -8.2% in [1] (Dosis 19.9 mg/kg/Tag) and -28.5% in assay [1] (Dosis 62.3 mg/kg/Tag). The β-Lipoprotein-Cholesterol in [1] (Dosis 6.5 mg/kg/Tag) is -13.0%; in [1] (Dosis 19.9 mg/kg/Tag), -13.2%; in assay [1] (Dosis 62.3 mg/kg/Tag), -33.7%. For the same compound, the MIC in assay [2] (ATCC10231, read-out: MHK) came out at 64 µg/mL; in assay [3] (ATCC9129, read-out: MHK), 1 µg/mL; in [4] (ATCC9080, read-out: MHK), 128 µg/mL; in the assay with Asp. niger ATCC 16404 (ATCC16404, read-out: MHK), 32 µg/mL; with Pen.notatum CBS 19746 (CBS19746, read-out: MHK), 64 µg/mL; with Rhod. rubra 49 it was 16 µg/mL. Further, the “2,3-Epoxysqualen-Konzentration” value is on record as 1.0 µg/g in assay [5] (c = 0.1 mg/kg, t = 3 h); 0.8 µg/g in [5] (c = 0.1 mg/kg, t = 8 h); 56.3 µg/g in [5] (c = 1.0 mg/kg, t = 3 h); 20.7 µg/g in assay [5] (c = 1.0 mg/kg, t = 8 h). For the same compound, the inhibition at 0.001 µM in assay [6] was 45%. Besides, the inhibition at 0.01 µM in assay [6] was found to be 80%.

As to `CN(C)Cc1ccc(CC2CCN(C(=O)OCc3ccccc3)CC2)cc1.Cl` [Verbindung I, N-Benzyloxycarbonyl-4-[4-(dimethylaminomethyl)benzyl]-piperidin-hydrochlorid], in assay [1] (Dosis 47.1 mg/kg/Tag), the Gesamtcholesterol was -23.1%. The HDL-Cholesterol in [1] (Dosis 47.1 mg/kg/Tag) is -17.6%. Besides, the β-Lipoprotein-Cholesterol in [1] (Dosis 47.1 mg/kg/Tag) is given as -32.9%. Further, the MIC in [2] (ATCC10231, Cand., Sabouraud-Bouillon, 2 bis 4 Tage bei 26°C, read-out: MHK) was 256 µg/mL; in [3] (ATCC9129, Trich., Sabouraud-Bouillon, 2 bis 4 Tage bei 26°C, read-out: MHK) it was 4 µg/mL; in [4] (ATCC9080, Sacc., Sabouraud-Bouillon, 2 bis 4 Tage bei 26°C, read-out: MHK), 512 µg/mL; with Asp. niger ATCC 16404 (ATCC16404, Asp., Sabouraud-Bouillon, 2 bis 4 Tage bei 26°C, read-out: MHK), 64 µg/mL; in the assay with Pen.notatum CBS 19746 (CBS19746, Pen., Sabouraud-Bouillon, 2 bis 4 Tage bei 26°C, read-out: MHK) it was 128 µg/mL; with Rhod. rubra 49 (Rhod., Sabouraud-Bouillon, 2 bis 4 Tage bei 26°C), 64 µg/mL. In addition, the “2,3-Epoxysqualen-Konzentration” value stood at 1.0 µg/g in assay [5] (c = 0.1 mg/kg, t = 3 h); 26.1 µg/g in assay [5] (c = 1.0 mg/kg, t = 3 h); 10.0 µg/g in assay [5] (c = 1.0 mg/kg, t = 8 h). For the same compound, the inhibition at 0.01 µM in [6] (Testkonzentration 10^-8 Mol/l) turned out to be 85%. Besides, in assay [6] (Testkonzentration 10^-9 Mol/l), the inhibition at 0.001 µM was determined as 47%.
